In one data set the test system is C.krusei CCM 8271. As to the kind of experiment: MIC, broth microdilution. Conditions: C.krusei CCM 8271, 24 h. It counts as cell-based, Candida krusei. An excerpt: (§1) Escherichia coli (PCM 2057 = ATCC 25922), Staphylococcus aureus (PCM 2054 = ATCC 25923), Staphylococcus epidermidis (PCM 2118 = ATCC 14990), Bacillus subtilis (PCM 2224 = ATCC 9799), Bacillus cereus (PCM 482 = ATCC 10702) and Pseudomonas aeruginosa (PCM 499 = ATCC 10145) were obtained from the Polish Collection of Microorganisms. Fungi strains Candida albicans (CCM 8186 = CNTC 49/64), Candida glabrata (CCM 8270 = ATCC 90030), Candida parapsilosis (CCM 8260 = ATCC 22019) and Candida krusei (CCM 8271 = ATCC 6258) were acquired from the Czech Collection of Microorganisms. S. aureus USA300 (wild type strain), the reference strain of Klebsiella pneumoniae (ATCC 13883) and clinical isolates of Pseudomonas aeruginosa (PA1, PA2) collected from nonrelated patients admitted to the Stefan Zeromski Specialist Municipal Hospital in Krakow (Poland) were kindly provided by the research group of the Department of Microbiology, Faculty of Biochemistry, Biophysics and Biotechnology, Jagiellonian University, Krakow, Poland.
(§2) Luria-Bertani broth (LB) and Sabouraud Dextrose broth (SB) (Biocorp, Poland) were used for cultivation of bacteria and fungi strains, respectively. The antimicrobial activity of the peptides were analyzed through determination of MIC (minimal inhibitory concentration) parameters according to Clinical and Laboratory Standards (CLSI) guidelines developed for aerobic bacteria and yeasts, respectively. Mueller-Hinton broth (MHB) was used as the working medium for all bacterial strains, while in the case of fungi, RPMI-1640 (with L-glutamine, without sodium bicarbonate) growth medium buffered with MOPS (morpholinepropanesulfonic acid) and supplemented with 2% glucose was used. Inoculum was prepared from freshly grown cultures of microorganisms at their exponential phase of growth. […] Plates were then incubated for 24 h at 37 °C in the case of bacteria and at 35 °C in the case of fungi. After that time, absorbance was read at 590 nm with a Perkin Elmer plate reader. Cultures without peptide were treated as positive control, while uninoculated media were defined as negative control. All measurements were run at least in triplicate.
In general terms: In broth dilution the organism is exposed to a series of concentrations in liquid medium.

Another data set has as its system C.parapsilosis CCM 8260. Description: MIC, broth microdilution. The data set is classed as cell-based, Candida parapsilosis. Conditions: C.parapsilosis CCM 8260, 24 h.
Description: as §1, §2

In a further data set the test system is C.glabrata CCM 8270. As to the kind of experiment: MIC, broth microdilution. The data set is classed as cell-based, Candida glabrata. The following applies: for MIC100: C.glabrata CCM 8270, 24 h.
Description: as §1, §2

A further data set concerns S. epidermidis PCM 2118. As to the kind of experiment: MIC, broth microdilution. The data set is classed as cell-based, Staphylococcus epidermidis. Conditions: S. epidermidis PCM 2118, 24 h.
Description: as §1, §2

The subject of the next data set is E. coli PCM 2057. As to the kind of experiment: MIC, broth microdilution. It counts as cell-based, Escherichia coli. Conditions: E. coli PCM 2057, 24 h.
Description: as §1, §2

In a further data set the test system is keratinocytes (HaCaT). As to the kind of experiment: Cytotoxicity, MTT assay. The data set is classed as cell-based, human. The following applies: MTT, 24 h; for IC50: Keratinocytes (HaCaT). As to the method:
(§3) Human dermal fibroblasts were obtained as previously reported from biopsies of healthy human skin of three donors undergoing a surgery. All procedures were approved by the Ethics Committee of Medicinal University of Gdansk (NKEBN/483/2011 and NKBBN/745/2019-2020). Immortalized human HaCaT keratinocytes (DKFZ Heidelberg, Germany) were obtained commercially.
(§4) Both types of cell lines were grown in Dulbecco′s Modified Eagle′s Medium (DMEM) (Sigma-Aldrich, Germany), containing […] of glucose, […] of L- glutamine, sodium pyruvate and sodium bicarbonate. Additionally, the medium was supplemented with 10% FCS (fetal calf serum, Sigma-Aldrich, Germany), 100 U/mL of penicillin and 100 μg/mL of streptomycin (Sigma-Aldrich, Germany). The cells were grown in standard culture dishes (BD, USA) in a humidified atmosphere with 5% CO2 at […], and the medium was changed every 2 days.
(§5) The fibroblasts and keratinocytes were seeded at density of 5500 cells per well into 96-well plates suspended in a medium supplemented with 10% FCS. After 24 h from seeding, the media were exchanged with serum- and antibiotic-free DMEM and tested peptides, dissolved in sterile water, which were added, yielding a final concentration ranging from 1 to 50 μg/mL. The cells were then incubated for the next 24 h. At the end of the experiment, the cells were treated with 20 μL of MTT (5 mg/mL in PBS). After 3 h of incubation in the presence of MTT dye, the DMEM medium was discarded and replaced with 6 mM HCl in isopropanol. When the purple crystals of formazan were fully solubilized, absorbance at 570 nm was read.

A further data set deals with primary fibroblasts. Description: Cytotoxicity, MTT assay. It counts as cell-based, human. Conditions: MTT, 24 h; for IC50: primary Fibroblasts. As to the method:
as §3, §4, §5
On the technique in general: Tetrazolium assays rely on reduction of a dye to a coloured formazan, in cell work by metabolically active cells.

Data set [1] has as its system S. aureus (PCM 2054) biofilm. Description: Biofilm inhibition assay (MTT). It counts as cell-based, Staphylococcus aureus. Conditions: S. aureus biofilm development, 24 h post-inoculation. As for the experimental part: In the case of bacteria, an overnight culture of S. aureus in Tryptic Soy Broth (TSB) supplemented with 2% glucose (TSB/+G) was used to prepare inoculum for the experiments. Briefly, 5 mL of 24 h culture was centrifuged at 5000× g, washed with sterile PBS and suspended in a fresh 2 × concentrated TSB/+G. In the case of yeasts, the overnight culture of C. albicans in Sabouraud dextrose broth (SB) was used for inoculum preparation. Similar to above, 5 mL of 24 h culture was centrifuged, washed with PBS and then suspended in sterile 2 × concentrated RPMI-1640 medium (with L-glutamine, without sodium bicarbonate) supplemented with 2% glucose (RPMI-1640/+G). In both cases, the cell concentration of the inoculum was about 1 × 10^7 cells per ml.
For the determination of the inhibitory concentration that reduced biofilm development by 50% (BIC50^, expressed in µg/mL), 100 µL inoculum in 2 × concentrated RPMI-1640/+G medium (in the case of C. albicans) or 2 x concentrated TSB/+G broth (in the case of S. aureus) was transferred to each well of 96-well plates containing 100 µL of serially diluted in water tested compounds. The final concentrations of the compounds were the same as those used in MIC determination studies. The 96-well plates were then incubated for 24 h at 37 °C and 35 °C in the case of bacteria and fungi, respectively. Viability of the microorganisms in the presence of the tested compounds was analyzed by means of MTT assay.
The reduction in biofilm viability was analyzed by means of MTT assay. Briefly, 20 μL of MTT solution (5 mg/mL in PBS) was added to prewashed wells with exchanged medium (180 μL of fresh medium) wells containing bacterial/yeast biofilms. Plates were then incubated in the dark for the next 3 h at 37 °C. After that time, the medium was replaced with 6 mM HCl in isopropanol and, when the reduced MTT was fully dissolved, the plates were read at 570 nm. Activity against fully developed 24 h old biofilm was described as biofilm eradication concentration (BEC50 expressed in µg/mL), which corresponded to the concentration of the compound able to reduce 50% of biofilm viability compared with the growth control.

A word on the IC50: it is the midpoint of a concentration-inhibition curve. A low value points to greater potency.

≈ marks a conversion by molar mass, not a printed value. Where a SMILES comes first, the peptide text is derived from it. [ ]: non-standard residue; d: D form. The star is where a group is joined. Palmitoyl = CCCCCCCCCCCCCCCC(=O)*; Lauroyl = CCCCCCCCCCCC(=O)*; Pentanoyl = CCCCC(=O)*; AEEA = NCCOCCOCC(=O)O; βAla = NCCC(=O)O

On to `CCCCCCCCCCCCCCCC(=O)NCCC(=O)N[C@@H](Cc1c[nH]cn1)C(=O)NCCOCCOCC(=O)N[C@H](C(=O)N[C@@H](CCCCN)C(=O)N[C@@H](CCCCN)C(=O)N[C@H](C(=O)N[C@@H](CC(C)C)C(=O)N[C@@H](CO)C(=O)N[C@@H](CCCCN)C(=O)N[C@H](C(=O)N[C@@H](CCCCN)C(=O)N[C@@H](CCCCN)C(=O)N[C@@H](CC(C)C)C(=O)N[C@@H](CC(C)C)C(N)=O)[C@@H](C)CC)[C@@H](C)CC)[C@@H](C)CC` [C16-CAR-PEG-DK5] ({Palmitoyl-βAla}-H[AEEA]IKKILSKIKKLL-NH2), for which the MIC100 against C.krusei CCM 8271 is given as 12.5 µg/mL (≈ 6.2 µM); in the data set with C.parapsilosis CCM 8260, 6.25 µg/mL (≈ 3.1 µM); in the data set with C.glabrata CCM 8270, more than 50 µg/mL; with S. epidermidis PCM 2118, 25 µg/mL (≈ 12.4 µM); in the data set on E. coli PCM 2057 it was more than 50 µg/mL. Also, the IC50 in the data set on keratinocytes (HaCaT) came to 1 µg/mL (≈ 0.496 µM); in the data set on primary fibroblasts, 4 µg/mL (≈ 1.98 µM). For the same compound, the BIC50 in data set [1] is given as 10 µg/mL.

For `CCCCCCCCCCCC(=O)N[C@H](C(=O)N[C@@H](CCCCN)C(=O)N[C@@H](CCCCN)C(=O)N[C@H](C(=O)N[C@@H](CC(C)C)C(=O)N[C@@H](CO)C(=O)N[C@@H](CCCCN)C(=O)N[C@H](C(=O)N[C@@H](CCCCN)C(=O)N[C@@H](CCCCN)C(=O)N[C@@H](CC(C)C)C(=O)N[C@@H](CC(C)C)C(N)=O)[C@@H](C)CC)[C@@H](C)CC)[C@@H](C)CC` [Compound C12-DK5] (Lauroyl-IKKILSKIKKLL-NH2), the MIC100 was 3.13 µg/mL (≈ 1.95 µM) against C.krusei CCM 8271; 3.13 µg/mL (≈ 1.95 µM) in the data set on C.parapsilosis CCM 8260; 3.13 µg/mL (≈ 1.95 µM) against C.glabrata CCM 8270; 0.78 µg/mL (≈ 0.486 µM) in the data set on S. epidermidis PCM 2118; 12.5 µg/mL (≈ 7.78 µM) in the data set with E. coli PCM 2057. The “fold improved activity in comparison to the parent DK5” value in the data set on C.glabrata CCM 8270 (C. glabrata, MIC) was approximately 20 fold. Moreover, the figures for the IC50 in the data set with keratinocytes (HaCaT) and with primary fibroblasts were 1 µg/mL (≈ 0.623 µM) and 7 µg/mL (≈ 4.36 µM), respectively. This compound also came in with a BIC50 in data set [1] of 6.25 µg/mL.

As for `CCCCC(=O)NCCC(=O)N[C@@H](Cc1c[nH]cn1)C(=O)NCCOCCOCC(=O)N[C@H](C(=O)N[C@@H](CCCCN)C(=O)N[C@@H](CCCCN)C(=O)N[C@H](C(=O)N[C@@H](CC(C)C)C(=O)N[C@@H](CO)C(=O)N[C@@H](CCCCN)C(=O)N[C@H](C(=O)N[C@@H](CCCCN)C(=O)N[C@@H](CCCCN)C(=O)N[C@@H](CC(C)C)C(=O)N[C@@H](CC(C)C)C(N)=O)[C@@H](C)CC)[C@@H](C)CC)[C@@H](C)CC` [C5-CAR-PEG-DK5] ({Pentanoyl-βAla}-H[AEEA]IKKILSKIKKLL-NH2), the MIC100 was more than 50 µg/mL in the data set on C.krusei CCM 8271; 50 µg/mL (≈ 26.9 µM) in the data set with C.parapsilosis CCM 8260; more than 50 µg/mL with C.glabrata CCM 8270; 6.25 µg/mL (≈ 3.36 µM) against S. epidermidis PCM 2118; more than 50 µg/mL against E. coli PCM 2057. The IC50 in the data set on keratinocytes (HaCaT) and in the data set on primary fibroblasts was more than 50 µg/mL throughout. The “effect on cell viability (in words)” value with keratinocytes (HaCaT) (keratinocytes, 1 to 50 µg/mL) is reported as “neutral or even pro-proliferative”; in the data set with primary fibroblasts (fibroblasts, 1 to 50 µg/mL), “neutral or even pro-proliferative”. For the same compound, the BIC50 in data set [1] is given as more than 50 µg/mL.

The values are drawn from publication PMC8269107, “Lipidation of Temporin-1CEb Derivatives as a Tool for Activity Improvement, Pros and Cons of the Approach” (International Journal of Molecular Sciences, 2021).
